# Experimental data: ChEMBL document CHEMBL5154811, “Discovery of SPH5030, a Selective, Potent, and Irreversible Tyrosine Kinase Inhibitor for HER2-Amplified and HER2-Mutant Cancer Treatment” (J Med Chem, 2022)
# pIC50: −log10 of the molar value.
# Assays:
# [1] = Cmax in ICR mouse at 10 mg/kg, po measured upto 1440 mins by LC/MS/MS analysis; format: ADME, organism-based; design: dose 10 mg/kg, time < 1440 min, route po; details: in vivo
# [2] = Metabolic stability in human liver microsomes assessed as half life at 1 uM preincubated for 5 mins followed by NADPH addition by LC-MS/MS analysis; format: ADME, Microsome
# BT-474 [3] = experiment: Antitumor activity against human BT-474 cells xenografted in BALB/c nude mouse assessed as tumor growth inhibition by measuring relative tumor growth at 20 mg/kg/day, po administered once daily for 21 days by caliper method relative to control; format: functional; details: time 21 day
# [4] = Half life in Sprague-Dawley rat at 10 mg/kg, po measured upto 1440 mins by LC/MS/MS analysis; format: ADME, organism-based; details: in vivo
# BaF3 [5] = experiment: Antitumor activity against mouse BaF3 cells harbouring HER2 A775_G776insYVMA mutant xenografted in BALB/c nude mouse assessed as tumor growth inhibition at 20 mg/kg, po qd measured for 13 days relative to control; format: functional; details: BaF3, 312 h, time 13 day, read-out: TGI
# [6] = Toxicity in BALB/c nude mouse xenografted with human NCI-N87 cells assessed as reduction in body weight at 5 to 40 mg/kg, po administered once daily for 21 days; format: organism-based; details: in vivo, 504 h, dose 5-40 mg/kg, time 21 day
# [7] = Volume of distribution at steady state in cynomolgus monkey at 1 mg/kg, iv measured upto 1440 mins by LC/MS/MS analysis; format: ADME, organism-based, Macaca fascicularis; details: in vivo, read-out: Vdss
# [8] = Oral bioavailability in ICR mouse at 10 mg/kg measured upto 1440 mins by LC/MS/MS analysis; format: ADME, organism-based; details: in vivo
# [9] = Tmax in cynomolgus monkey at 15 mg/kg, po measured upto 1440 mins by LC/MS/MS analysis; format: ADME, organism-based, Macaca fascicularis; details: in vivo
# BT-474 [10] = experiment: Antiproliferative activity against human BT-474 cells assessed as inhibition of cell growth incubated for 72 hrs by Celltiter-Glo assay; format: functional, cell-based; details: BT-474, 72 h
# SK-BR-3 = experiment: Antiproliferative activity against human SK-BR-3 cells overexpressing wild type HER2 assessed as cell growth inhibition incubated for 72 hrs by Celltiter-Glo assay; format: functional, cell-based; details: SK-BR-3, 72 h
# NCI-N87 [11] = experiment: Antitumor activity against human NCI-N87 cells xenografted in BALB/c nude mouse assessed as tumor growth inhibition at 20 mg/kg/day, po administered once daily for 21 days relative to control; format: functional; details: NCI-N87, 504 h, time 21 day, read-out: TGI
# BT-474 [12] = experiment: Antitumor activity against human BT-474 cells xenografted in BALB/c nude mouse assessed as tumor growth inhibition at 20 mg/kg/day, po administered once daily for 21 days relative to control; format: functional; details: BT-474, 504 h, time 21 day, read-out: TGI
# BT-474 [13] = experiment: Antitumor activity against human BT-474 cells xenografted in BALB/c nude mouse assessed as tumor growth inhibition by measuring relative tumor growth at 5 mg/kg/day, po administered once daily for 21 days by caliper method relative to control; format: functional; details: time 21 day
# [14] = Toxicity in BALB/c nude mouse xenografted with human BT-474 cells assessed as mortality at 5 to 40 mg/kg, po administered once daily for 21 days; format: organism-based; details: in vivo, 504 h, dose 5-40 mg/kg, time 21 day
# [15] = target: Receptor tyrosine-protein kinase erbB-2 (Homo sapiens, UniProt P04626); experiment: Inhibition of wild type human GST-tagged HER2 (676 to end residues) expressed in baculovirus infected Sf9 cells incubated for 30 mins in presence of ATP by HTRF analysis
# Sequence of Receptor tyrosine-protein kinase erbB-2 (Homo sapiens, UniProt P04626) (P04626 whole entry): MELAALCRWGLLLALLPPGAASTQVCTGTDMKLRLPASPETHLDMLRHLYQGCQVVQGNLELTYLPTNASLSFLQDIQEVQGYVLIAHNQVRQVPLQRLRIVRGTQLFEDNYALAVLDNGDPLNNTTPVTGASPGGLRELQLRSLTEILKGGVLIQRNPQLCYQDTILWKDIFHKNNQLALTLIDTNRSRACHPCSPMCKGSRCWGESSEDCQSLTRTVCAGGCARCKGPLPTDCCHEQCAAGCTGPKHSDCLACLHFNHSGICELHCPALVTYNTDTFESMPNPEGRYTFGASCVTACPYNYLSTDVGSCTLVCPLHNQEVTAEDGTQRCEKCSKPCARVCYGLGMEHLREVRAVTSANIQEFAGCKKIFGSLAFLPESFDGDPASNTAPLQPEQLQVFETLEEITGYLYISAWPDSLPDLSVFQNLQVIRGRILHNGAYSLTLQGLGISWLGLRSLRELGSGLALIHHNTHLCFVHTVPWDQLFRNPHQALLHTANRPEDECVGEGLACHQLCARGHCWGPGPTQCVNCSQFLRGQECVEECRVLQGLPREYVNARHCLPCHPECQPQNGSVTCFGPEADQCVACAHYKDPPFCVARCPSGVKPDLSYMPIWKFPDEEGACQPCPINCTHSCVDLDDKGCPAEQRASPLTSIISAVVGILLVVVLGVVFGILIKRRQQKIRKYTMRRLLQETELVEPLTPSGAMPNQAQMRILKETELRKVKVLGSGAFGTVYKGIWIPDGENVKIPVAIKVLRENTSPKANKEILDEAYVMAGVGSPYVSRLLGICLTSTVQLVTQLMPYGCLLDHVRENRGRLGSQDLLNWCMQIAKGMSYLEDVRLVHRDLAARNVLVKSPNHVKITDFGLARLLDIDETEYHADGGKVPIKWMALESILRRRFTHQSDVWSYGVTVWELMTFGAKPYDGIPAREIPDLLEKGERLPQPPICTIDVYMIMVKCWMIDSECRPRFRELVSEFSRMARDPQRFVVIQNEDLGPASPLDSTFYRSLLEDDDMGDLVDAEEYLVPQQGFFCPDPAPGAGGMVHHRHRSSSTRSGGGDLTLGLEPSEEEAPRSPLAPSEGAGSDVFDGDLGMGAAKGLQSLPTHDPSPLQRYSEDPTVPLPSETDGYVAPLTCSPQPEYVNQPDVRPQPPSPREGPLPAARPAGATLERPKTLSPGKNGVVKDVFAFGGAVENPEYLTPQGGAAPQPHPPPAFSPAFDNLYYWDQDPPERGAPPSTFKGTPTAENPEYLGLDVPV
# BaF3 [16] = experiment: Antitumor activity against mouse BaF3 cells harbouring HER2 A775_G776insYVMA xenografted in BALB/c nude mouse assessed as tumor growth inhibition at 10 mg/kg/day, po qd measured for 13 days relative to control; format: functional; details: BaF3, 312 h, time 13 day, read-out: TGI
# BaF3 [17] = experiment: Antitumor activity against mouse BaF3 cells harbouring HER2 A775_G776insYVMA mutant xenografted in BALB/c nude mouse assessed as tumor growth inhibition by measuring relative tumor growth at 10 mg/kg, po qd for 13 days by caliper method relative to control; format: functional; details: time 13 day
# BaF3 [18] = experiment: Antitumor activity against mouse BaF3 cells harbouring HER2 A775_G776insYVMA mutant xenografted in BALB/c nude mouse assessed as tumor growth inhibition by measuring relative tumor growth at 40 mg/kg, po qd for 13 days by caliper method relative to control; format: functional; details: time 13 day
# [19] = Clearance in cynomolgus monkey at 1 mg/kg, iv measured upto 1440 mins by LC/MS/MS analysis; format: ADME, organism-based, Macaca fascicularis; details: in vivo
# NCI-N87 [20] = experiment: Antitumor activity against human NCI-N87 cells xenografted in BALB/c nude mouse assessed as tumor growth inhibition by measuring relative tumor growth at 20 mg/kg/day, po administered once daily for 21 days by caliper method relative to control; format: functional; details: time 21 day
# [21] = Half life in ICR mouse at 10 mg/kg, po measured upto 1440 mins by LC/MS/MS analysis; format: ADME, organism-based; details: in vivo
# BaF3 [22] = experiment: Antitumor activity against mouse BaF3 cells harbouring HER2 A775_G776insYVMA mutant xenografted in BALB/c nude mouse assessed as tumor growth inhibition by measuring relative tumor growth at 20 mg/kg, po qd for 13 days by caliper method relative to control; format: functional; details: time 13 day
# [23] = target: Receptor tyrosine-protein kinase erbB-2 (Homo sapiens, UniProt P04626, R896C); experiment: Inhibition of HER2 R896C mutant (unknown origin) incubated for 120 mins in presence of 33P-ATP by P81 ion exchange cellulose chromatography
# Sequence of Receptor tyrosine-protein kinase erbB-2 (Homo sapiens, UniProt P04626, R896C) (P04626 23-1255 R896C limits assumed): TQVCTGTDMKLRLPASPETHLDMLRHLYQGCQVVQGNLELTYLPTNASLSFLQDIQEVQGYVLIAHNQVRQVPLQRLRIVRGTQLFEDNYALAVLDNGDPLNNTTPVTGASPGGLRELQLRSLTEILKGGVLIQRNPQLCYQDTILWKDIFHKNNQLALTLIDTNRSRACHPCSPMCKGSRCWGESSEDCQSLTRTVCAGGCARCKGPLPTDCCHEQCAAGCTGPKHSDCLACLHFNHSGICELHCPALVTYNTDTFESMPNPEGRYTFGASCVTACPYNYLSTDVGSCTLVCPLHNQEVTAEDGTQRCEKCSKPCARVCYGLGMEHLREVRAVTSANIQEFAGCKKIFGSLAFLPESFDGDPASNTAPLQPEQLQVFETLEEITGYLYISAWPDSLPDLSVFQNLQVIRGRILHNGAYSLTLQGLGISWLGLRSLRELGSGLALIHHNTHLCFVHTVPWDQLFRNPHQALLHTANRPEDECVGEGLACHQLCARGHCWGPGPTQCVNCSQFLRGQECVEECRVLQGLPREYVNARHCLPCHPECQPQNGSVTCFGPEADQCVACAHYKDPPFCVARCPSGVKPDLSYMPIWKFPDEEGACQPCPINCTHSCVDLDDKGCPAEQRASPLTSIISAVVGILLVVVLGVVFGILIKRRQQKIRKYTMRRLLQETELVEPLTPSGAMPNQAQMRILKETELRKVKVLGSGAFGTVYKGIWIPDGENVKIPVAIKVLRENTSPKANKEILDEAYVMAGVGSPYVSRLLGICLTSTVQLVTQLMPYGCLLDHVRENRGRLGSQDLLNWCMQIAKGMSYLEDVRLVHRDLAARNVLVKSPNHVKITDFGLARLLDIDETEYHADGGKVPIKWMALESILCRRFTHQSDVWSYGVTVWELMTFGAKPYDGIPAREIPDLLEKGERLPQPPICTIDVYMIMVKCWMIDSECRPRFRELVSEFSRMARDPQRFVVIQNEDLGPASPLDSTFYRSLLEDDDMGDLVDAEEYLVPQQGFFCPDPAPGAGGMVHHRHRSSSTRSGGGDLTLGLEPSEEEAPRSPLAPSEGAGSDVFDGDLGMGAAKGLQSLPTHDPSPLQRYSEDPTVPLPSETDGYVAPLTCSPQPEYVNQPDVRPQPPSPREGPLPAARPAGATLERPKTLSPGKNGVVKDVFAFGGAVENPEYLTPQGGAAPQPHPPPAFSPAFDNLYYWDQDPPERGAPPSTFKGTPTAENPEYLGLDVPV
# NCI-N87 [24] = experiment: Antitumor activity against human NCI-N87 cells xenografted in BALB/c nude mouse assessed as tumor growth inhibition at 10 mg/kg/day, po administered once daily for 21 days relative to control; format: functional; details: NCI-N87, 504 h, time 21 day, read-out: TGI
# [25] = Half life in cynomolgus monkey at 15 mg/kg, po measured upto 1440 mins by LC/MS/MS analysis; format: ADME, organism-based, Macaca fascicularis; details: in vivo
# [26] = Clearance in Sprague-Dawley rat at 3 mg/kg, iv measured upto 1440 mins by LC/MS/MS analysis; format: ADME, organism-based; details: in vivo
# MFE-280 = experiment: Antiproliferative activity against human MFE-280 cells assessed as cell growth inhibition incubated for 72 hrs by Celltiter-Glo assay; format: functional, cell-based; details: MFE-280, 72 h
smiles,measurement,setting,value
CCOc1cc2ncnc(Nc3ccc(Oc4cc5nncn5cn4)c(C)c3)c2cc1NC(=O)/C(F)=C/[C@H]1CCCN1C,Cmax,[1],1900 ng/mL
same,half-life at 1 µM,[2],9.24 h
same,T/C,BT-474 [3],7.68%
same,half-life,[4],4.38 h
same,inhibition in vivo at 20 mg/kg,BaF3 [5],107%
same,Activity,[6],Non-Toxic
same,Vd,[7],3.71 L/kg
same,bioavailability,[8],87.7%
same,Tmax,[9],7.5 h
same,pIC50,BT-474 [10],8.70
same,pIC50,SK-BR-3,7.70
same,inhibition in vivo at 20 mg/kg/day,NCI-N87 [11],114%
same,inhibition in vivo at 20 mg/kg/day,BT-474 [12],123%
same,T/C,BT-474 [13],17.68%
same,Activity,[14],Non-Toxic
same,pIC50,[15],8.45
same,inhibition in vivo at 10 mg/kg/day,BaF3 [16],95%
same,T/C,BaF3 [17],16.66%
same,T/C,BaF3 [18],2%
same,clearance,[19],10.2 mL/min/kg
same,T/C,NCI-N87 [20],2.03%
same,half-life,[21],3.6 h
same,T/C,BaF3 [22],6.89%
same,pIC50,[23],9.25
same,inhibition in vivo at 10 mg/kg/day,NCI-N87 [24],113%
same,half-life,[25],5.63 h
same,clearance,[26],13 mL/min/kg
same,pIC50,MFE-280,5.40
